Values quoted from earlier work in patent publication US20260335248A1, “ANTIFUNGAL AGENT ENCAPSULATED IN A LIPID NANOCRYSTAL FOR TREATING MUCORMYCOSIS” (MATINAS BIOPHARMA NANOTECHNOLOGIES, INC., priority 2022, published 2026).

Test system: mucormycosis
Settings: Luo et al., 2013

In the case of `CC[C@@H]([C@H](C)O)n1ncn(-c2ccc(N3CCN(c4ccc(OC[C@@H]5CO[C@@](Cn6cncn6)(c6ccc(F)cc6F)C5)cc4)CC3)cc2)c1=O` [Posaconazole, posaconazole], the “fungal burdens in lungs and brain compared with placebo” value is listed as “effective in reducing the fungal burdens in lungs and brain”.
